Patent US10039733B2, “Compositions, method, and kits for treating pulmonary conditions” (NuSirt Sciences, Inc., priority 2013, dated 2018)

Experiments:
IL1-β = IL1-β secretion from MLEC (ELISA); format: cell-based, mouse; conditions: MLEC treated directly; theophylline 1 μM, leucine 0.5 mM, resveratrol 200 nM; FIG. 4
Source text: (§1) Interleukin 1-β, eotaxin, and interleukin 6 were all measured via enzyme-linked immunosorbent assay using specific antibodies for each cytokine (Abcam, Cambridge, Mass.) and a horseradish peroxidase-based second antibody detection system, with chromogenic detection at 450 nm using a microplate reader (Synergy HT, BioTek Instruments, Winooski, Vt.).

IL 6 [1] = experiment: cellular IL 6 content in MLEC (ELISA); format: cell-based, mouse; conditions: MLEC treated directly; theophylline 1 μM, leucine 0.5 mM, resveratrol 200 nM; FIG. 7
Method: (§2) Cells were grown in Dulbecco's modified eagle's medium (DMEM) containing a growth factor supplement (Cell Biologics #M1 166) which included 5% fetal bovine serum (FBS), heparin, EGF, hydrocortisone, L-glutamine and antibiotics at 37° C. in 5% CO2.
as §1
(§3) Following treatment, western blots or ELISA assays were performed on the MLEC to determine the level of various indicators of airway diseases, such as NFκB protein expression, eotaxin secretion, IL1-β secretion, cellular IL6 content or secretion, adiponectin receptor 1 protein expression, and adiponectin receptor 2 protein expression.

[2] = system: OVA-induced asthmatic mice; experiment: BALF cellularity by flow cytometry in OVA-induced asthma; format: in vivo, Balb/c mice; conditions: theophylline 10 mg/kg IP, baseline 12 g leucine diet
Method: The interactive effects of leucine and theophylline was evaluated in sixty young adult female Balb/c mice that were randomized to the following six groups (n=10/group):
Group 1 was an untreated control group that was administered a diet containing a baseline level of leucine at 12 g of leucine/day.
Group 2 was a positive control group that was administered dexamethasone via IP injection and a diet containing a baseline level of leucine at 12 g of leucine/day.
Group 3 was administered a diet containing a high level of leucine (diet containing leucine at 12 g/day for days 0-13 and 24 g/day beginning on day 14) and no theophylline or dexamethasone.
Group 4 was administered sub-therapeutic level of theophylline (1 mg/kg theophylline, 10% of therapeutic level) via IP injection and a high leucine diet (diet containing leucine at 12 g/day for days 0-13 and 24 g/day beginning on day 14). […]
Animals were sacrificed on day 28, subjected to bronchial alveolar lavage and the lavage fluid (BALF, 2 mL) and lungs collected. Airway inflammation was evaluated by assessing cellularity of BALF via flow cytometer; parameters used for cellular differentiation were sized granularity, autofluorescence and the expression of the following markers: CD45, Gr-1, CD11b, CCR3, B220 and CD3. […]

NFκB = NFκB protein expression by Western blot in directly treated MLEC; conditions: theophylline 1 μM, leucine 0.5 mM, resveratrol 200 nM, FIG. 1
eotaxin = eotaxin secretion from MLEC (ELISA); format: cell-based, mouse; conditions: MLEC treated directly; theophylline 1 μM, leucine 0.5 mM, resveratrol 200 nM; FIG. 5
Source text: as §1

IL 6 [3] = experiment: IL 6 secretion from MLEC (ELISA); format: cell-based, mouse; conditions: positive control, FIG. 8
Method: as §2, §1, §3

Row | Compound | IL1-β secretion (IL1-β) | cellular expression of IL 6 (IL 6 [1]) | eosinophil number in BALF ([2]; FIG. 15) | T-cell number in BALF ([2]; trend not significant (0.05<p<0.1), FIG. 16) | NFκB protein expression relative to control (NFκB) | eotaxin secretion into the media (eotaxin) | IL 6 secretion (IL 6 [3])
1 | Cn1c(=O)c2[nH]cnc2n(C)c1=O [theophylline] | no significant independent effect | unaffected | modest significant decreases | modestly reduced | no independent effect |  | 
2 | TNFα | significant increase |  |  |  |  | no significant effect | significant increase
